Literature values in patent US7030077B2, “Detergent compositions” (Unilever Home and Personal Care USA, a division of Conopco, …, priority 2002, dated 2006).
Like-named read-outs stand apart in the source and are kept apart here.

[1] = other common materials, by contrast, at 20° C.

| Water Solubility (g/100 g) (highly water-soluble materials, grams of solid to form a saturated solution in 100 g of deionised water at 20° C.) | Structure (SMILES) | Water Solubility (g/100 g) [1] [g/100 g] |
| --- | --- | --- |
| – | O=P(O)(O)OP(=O)(O)OP(=O)(O)O [Sodium tripolyphosphate anhydrous] | 15 |
| >100 | NC(N)=O [Urea] | – |
| – | O=BO[O-].[Na+] [Sodium perborate anhydrous] | 3.7 |
